In PubChem BioAssay (NCI):
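Dose response: 5 concentrations. Exposure: 48 h. Format: 96-well plates. Endpoint: linear interpolation; highest concentration if not reached. GI50 marks 50% less growth. TGI is the concentration that stops growth completely.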 Where a SMILES comes first, the peptide text is derived from it. [ ]: non-standard residue; d: D form. pGlu = O=C1CC[CH](C(=O)O)N1

Experiments:
Experiment in all cases: NCI-60 cell line screen, 48 h
EKVX NSCLC = test system: EKVX NSCLC
NCI-H23 lung = test system: NCI-H23 lung
MDA-N = test system: MDA-N
UACC-62 melanoma = test system: UACC-62 melanoma
LOX IMVI melanoma = test system: LOX IMVI melanoma
RXF 393 renal = test system: RXF 393 renal
786-0 renal = test system: 786-0 renal
NCI-H460 lung = test system: NCI-H460 lung
CCRF-CEM leukemia = test system: CCRF-CEM leukemia
COLO 205 colon = test system: COLO 205 colon
OVCAR-5 ovarian = test system: OVCAR-5 ovarian
NCI-H522 lung = test system: NCI-H522 lung

SMILES	TGI (EKVX NSCLC) [µM]	TGI (NCI-H23 lung) [µM]	TGI (MDA-N) [µM]	TGI (UACC-62 melanoma) [µM]	TGI (LOX IMVI melanoma) [µM]	TGI (RXF 393 renal) [µM]	TGI (786-0 renal) [µM]	TGI (NCI-H460 lung) [µM]	TGI (CCRF-CEM leukemia) [µM]	TGI (COLO 205 colon) [µM]	TGI (OVCAR-5 ovarian) [µM]	TGI (NCI-H522 lung) [µM]	GI50 (EKVX NSCLC) [µM]	GI50 (NCI-H23 lung) [µM]	GI50 (MDA-N) [µM]	GI50 (UACC-62 melanoma) [µM]	GI50 (NCI-H460 lung) [µM]	GI50 (COLO 205 colon) [µM]	GI50 (OVCAR-5 ovarian) [µM]	GI50 (NCI-H522 lung) [µM]
CCOC(=O)C12CCC(=O)N1N(C)c1ncccc1N2 (configuration not stated)	> 100	> 100	> 100	> 100	> 100	> 100	> 100	> 100	> 100	> 100	> 100	> 100								
CC(C)C1CSC2N1C(=O)C2(OCc1ccccc1)C1CC1 (configuration not stated)	> 100	> 100	> 100	> 100	> 100	> 100	> 100	> 100	> 100	> 100	> 100	> 100								
COC(=O)[C@H](Cc1ccccc1)NC(=O)c1ccc(CNC(=O)/C=C/c2ccc(OCc3ccccc3)cc2)cc1	87.6	33.5	5.43	18.6	> 100	18.7	19.1	> 100	> 100	> 100	> 81.6	> 100								
O=C(Cc1ccc2ccccc2c1)NCc1ccc(C(=O)NCCc2ccccc2)cc1	> 100	> 100	> 100	> 100	> 100	> 100	> 100	> 100	> 100	> 100	> 100	> 100								
O=S(=O)(O)c1ccc(N=Nc2ccccc2)cc1	> 100	> 100	> 100	> 100	> 100	> 100	> 100	> 100	> 100	> 100	> 100	> 100								
CCn1c(SCC(=O)N/N=C2\SCC(=O)N2c2ccc(C)cc2)nc2ccccc2c1=O	46.2	42.2	53.4	29.1	55.6	53.8	35	57.4	> 100	> 100	48.2	62.1								
O=c1onc2n1-c1ccc(Cl)cc1C(=S)N1CSCC21 (configuration not stated)	> 100		23.7	> 100	> 100	89.2	> 100	40	> 100	35.1	> 100	62.9								
FC1(F)ON2CCc3ccccc3C2[C@H]1c1ccccc1 (some centres not stated)	> 100	> 100	> 100	> 100	> 100	> 100	96.7	> 100	> 100	> 100	> 100	> 100	> 100	> 100	> 100	> 100	> 100	> 100	> 100	> 100
NS(=O)(=O)c1ccc(NC(=O)N/N=C/c2ccccc2[N+](=O)[O-])cc1	> 100	> 100	39	> 100	> 100	> 100	> 100	> 100	> 100	> 100	> 100	> 100								
C=C1C2CCC3C4(C)CCCC(C)(C(=O)O)C4CCC3(C2)C1OC(=O)/C(C)=C/C (configuration not stated)	> 100	> 100	68.2	62.2	> 100	34.2	> 100	> 100	> 100	82.1	79.5	> 100								
O=c1[nH]c(NCc2cccnc2)nc2nc[nH]c12	> 100	> 100	> 100	> 100	> 100	> 100	> 100	> 100	> 100	> 100	> 100	> 100								
COC(=O)C1=C(C)NC(=O)N2[C@@H](CCOCc3ccccc3)CC[C@@H]12	> 50	> 50	> 50	> 50	> 50	> 50	> 50	> 50	> 50	> 50	> 50	> 50								
COC(=O)C(CNC(=O)/C=C/c1ccc(OC)c(OC)c1)NC(=O)/C=C/c1ccc(OC)c(OC)c1 (configuration not stated)	> 100	> 100	> 100	> 100	> 100	> 100	> 100	> 100	> 100	> 100	> 100	> 100								
CC(NC(=O)C1CCC(=O)N1)C(=O)N1CCCC1C(N)=O (stereo not drawn) ([pGlu]-Ala-Pro-NH2; configuration not given here)	> 100	> 100	> 100	> 100	> 100	> 100	> 100	> 100	> 100	> 100	> 100	> 100								
CC(NC1=NCCO1)c1ccccc1Cl (configuration not stated)	> 100	> 100	> 100	> 100	> 100	> 100	> 100	> 100	> 100	> 100	> 100	> 100								
